Tests used:
[1] = target: T1, mGlyT-1b (Mus musculus, UniProt P28571); test: Glycine Uptake Inhibition Assay (mGlyT-1b); type: cell-based; settings: [3H]-glycine uptake in Flp-in-CHO cells stably transfected with mGlyT1b cDNA; 20 min preincubation at 22° C.; read-out: IC50 (μM) at GlyT-1
T1 construct: host or cells: Flp-in-CHO
T1 sequence (P28571 1-651 isoform P28571-2): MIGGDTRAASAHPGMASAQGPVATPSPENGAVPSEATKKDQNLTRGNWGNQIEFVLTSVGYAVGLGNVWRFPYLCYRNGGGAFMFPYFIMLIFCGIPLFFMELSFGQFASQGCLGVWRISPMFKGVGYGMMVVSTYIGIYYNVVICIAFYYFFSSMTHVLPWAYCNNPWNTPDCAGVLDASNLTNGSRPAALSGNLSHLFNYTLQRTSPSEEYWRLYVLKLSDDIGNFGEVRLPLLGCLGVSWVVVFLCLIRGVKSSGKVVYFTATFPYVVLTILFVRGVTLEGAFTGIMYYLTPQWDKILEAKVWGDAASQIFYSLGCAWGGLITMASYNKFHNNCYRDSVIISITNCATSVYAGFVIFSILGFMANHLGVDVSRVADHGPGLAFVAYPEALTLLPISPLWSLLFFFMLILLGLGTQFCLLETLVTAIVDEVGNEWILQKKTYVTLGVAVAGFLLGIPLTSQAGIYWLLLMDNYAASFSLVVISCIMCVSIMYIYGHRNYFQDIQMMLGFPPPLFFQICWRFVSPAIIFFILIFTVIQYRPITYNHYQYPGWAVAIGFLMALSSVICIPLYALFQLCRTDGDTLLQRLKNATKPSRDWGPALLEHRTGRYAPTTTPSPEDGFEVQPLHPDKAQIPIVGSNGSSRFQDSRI
Protocol: DMEM complete medium: Nutrient mixture F-12 (Gibco Life-technologies), fetal bovine serum (FBS) 5%, (Gibco life technologies), Penicillin/Streptomycin 1% (Gibco life technologies), Hygromycin 0.6 mg/ml (Gibco life technologies), Glutamine 1 mM Gibco life technologies)
Uptake buffer (UB): 150 mM NaCl, 10 mM Hepes-Tris, pH 7.4, 1 mM CaCl2, 2.5 mM KCl, 2.5 mM MgSO4, 10 mM (+) D-glucose. Flp-in™-CHO (Invitrogen Cat n^o R758-07)cells stably transfected with mGlyT1b cDNA.
Glycine Uptake Inhibition Assay (mGlyT-1b)
On day 1 mammalian cells, (Flp-in™-CHO), transfected with mGlyT-1b cDNA, were plated at the density of 40,000 cells/well in complete F-12 medium, without hygromycin in 96-well culture plates. On day 2 ,the medium was aspirated, and the cells were washed twice with uptake buffer (UB). The cells were then incubated for 20 min at 22° C. with either (i) no potential competitor, (ii) 10 mM non-radioactive glycine, (iii) a concentration of a potential inhibitor. A range of concentrations of the potential inhibitor was used to generate data for calculating the concentration of inhibitor resulting in 50% of the effect (e.g. IC50, the concentration of the competitor inhibiting glycine uptake of 50%). A solution was then immediately added containing [^3H]-glycine 60 nM (11-16 Ci/mmol) and 25 μM non-radioactive glycine. The plates were incubated with gentle shaking, and the reaction was stopped by aspiration of the mixture and washing (three times) with ice-cold UB. The cells were lysed with scintillation liquid, shaken 3 hours, and the radioactivity in the cells was counted using a scintillation counter.

Structure (SMILES) | melting point | IC50 [1]
CC(=O)c1ccc(N2CCN(C(=O)c3c(Cl)ccc([N+](=O)[O-])c3Cl)CC2)c(F)c1 [Example 12, 1-{4-[4-(2,6-Dichloro-3-nitro-benzoyl)-piperazin-1-yl]-3-fluoro-phenyl}-ethanone] | 209 to 211 °C | –
CC(=O)c1ccc(N2CCN(C(=O)c3cc([N+](=O)[O-])ccc3-c3ccccc3)CC2)c(F)c1 [Example 15, 1-{3-Fluoro-4-[4-(4-nitro-biphenyl-2-carbonyl)-piperazin-1-yl]-phenyl}-ethanone] | – | 0.023 µM
CC(=O)c1ccc(N2CCN(C(=O)c3cc([N+](=O)[O-])ccc3C3CC3)CC2)c(F)c1 [Example 16, 1-{4-[4-(2-Cyclopropyl-5-nitro-benzoyl)-piperazin-1-yl]-3-fluoro-phenyl}-ethanone] | – | 0.026 µM
COC(=O)c1ccc([N+](=O)[O-])cc1C(=O)N1CCN(c2ccc(C(C)=O)cc2F)CC1 [Example 43, 2-[4-(4-Acetyl-2-fluoro-phenyl)-piperazine-1-carbonyl]-4-nitro-benzoic acid methyl ester] | 189 to 191 °C | 0.032 µM
CS(=O)(=O)c1ccc(-c2cccs2)c(C(=O)N2CCN(c3ccc(C(F)(F)F)cc3)CC2)c1 [Example 52, (5-Methanesulfonyl-2-thiophen-2-yl-phenyl)-[4-(4-trifluoromethyl-phenyl)-piperazin-1-yl]-methanone] | – | 0.033 µM
CS(=O)(=O)c1ccc(-c2ccsc2)c(C(=O)N2CCN(c3ccc(C(F)(F)F)cc3)CC2)c1 [Example 53, (5-Methanesulfonyl-2-thiophen-3-yl-phenyl)-[4-(4-trifluoromethyl-phenyl)-piperazin-1-yl]-methanone] | – | 0.006 µM
Cc1ccc(-c2ccc(S(C)(=O)=O)cc2C(=O)N2CCN(c3ccc(C(F)(F)F)cc3)CC2)s1 [Example 55, [5-Methanesulfonyl-2-(5-methyl-thiophen-2-yl)-phenyl]-[4-(4-trifluoromethyl-phenyl)-piperazin-1-yl]-methanone] | – | 0.039 µM
CS(=O)(=O)c1ccc(-c2ccncc2)c(C(=O)N2CCN(c3ccc(C(F)(F)F)cc3)CC2)c1 [Example 59, (5-Methanesulfonyl-2-pyridin-4-yl-phenyl)-[4-(4-trifluoromethyl-phenyl)-piperazin-1-yl]-methanone] | – | 0.033 µM
CS(=O)(=O)c1ccc(C2=CCOCC2)c(C(=O)N2CCN(c3ccc(C(F)(F)F)cc3)CC2)c1 [Example 60, [2-(3,6-Dihydro-2H-pyran-4-yl)-5-methanesulfonyl-phenyl]-[4-(4-trifluoromethyl-phenyl)-piperazin-1-yl]-methanone] | – | 0.019 µM
CS(=O)(=O)c1ccc(-c2ccccc2)c(C(=O)N2CCN(c3ccc(C(F)(F)F)cc3F)CC2)c1 [Example 62, [4-(2-Fluoro-4-trifluoromethyl-phenyl)-piperazin-1-yl]-(4-methanesulfonyl-biphenyl-2-yl)-methanone] | – | 0.019 µM
CS(=O)(=O)c1ccc(-c2ccc(F)cc2)c(C(=O)N2CCN(c3ccc(C(F)(F)F)cc3F)CC2)c1 [Example 63, (4′-Fluoro-4-methanesulfonyl-biphenyl-2-yl)-[4-(2-fluoro-4-trifluoromethyl-phenyl)-piperazin-1-yl]-methanone] | – | 0.01 µM
CC(=O)c1ccc(N2CCN(C(=O)c3cc(S(C)(=O)=O)ccc3C3=CCCCC3)CC2)c(F)c1 [Example 68, 1-{4-[4-(2-Cyclohex-1-enyl-5-methanesulfonyl-benzoyl)-piperazin-1-yl]-3-fluoro-phenyl}-ethanone] | – | 0.007 µM

More lines, now with the values ahead:

melting point | IC50 [1] | Structure (SMILES)
– | 0.031 µM | CCc1ccc(N2CCN(C(=O)c3cc(S(C)(=O)=O)ccc3C3CCCCC3)CC2)c(F)c1 [Example 69, (2-Cyclohexyl-5-methanesulfonyl-phenyl)-[4-(4-ethyl-2-fluoro-phenyl)-piperazin-1-yl]-methanone]
– | 0.013 µM | CC(=O)c1ccc(N2CCN(C(=O)c3cc(S(C)(=O)=O)ccc3C3=CCCC3)CC2)c(F)c1 [Example 71, 1-{4-[4-(2-Cyclopent-1-enyl-5-methanesulfonyl-benzoyl)-piperazin-1-yl]-3-fluoro-phenyl}-ethanone]
– | 0.021 µM | CC(=O)c1ccc(N2CCN(C(=O)c3cc(S(C)(=O)=O)ccc3C3=CCOCC3)CC2)c(F)c1 [Example 72, 1-(4-{4-[2-(3,6-Dihydro-2H-pyran-4-yl)-5-methanesulfonyl-benzoyl]-piperazin-1-yl}-3-fluoro-phenyl)-ethanone]
– | 0.013 µM | CC(=O)c1ccc(N2CCN(C(=O)c3cc(S(C)(=O)=O)ccc3C3=CCCCCC3)CC2)c(F)c1 [Example 73, 1-{4-[4-(2-Cyclohept-1-enyl-5-methanesulfonyl-benzoyl)-piperazin-1-yl]-3-fluoro-phenyl}-ethanone]
– | 0.014 µM | CS(=O)(=O)c1ccc(C2=CCCCCC2)c(C(=O)N2CCN(c3ccc(C(F)(F)F)cc3)CC2)c1 [Example 75, (2-Cyclohept-1-enyl-5-methanesulfonyl-phenyl)-[4-(4-trifluoromethyl-phenyl)-piperazin-1-yl]-methanone]
– | 0.012 µM | CNS(=O)(=O)c1ccc(-c2ccccc2)c(C(=O)N2CCN(c3ccc(C(F)(F)F)cc3)CC2)c1 [Example 76, 2-[4-(4-Trifluoromethyl-phenyl)-piperazine-1-carbonyl]-biphenyl-4-sulfonic acid methylamide]
– | 0.011 µM | CS(=O)(=O)c1ccc(C2=CCCCC2)c(C(=O)N2CCN(c3ccc(C(F)(F)F)cc3)CC2)c1 [Example 77, (2-Cyclohex-1-enyl-5-methanesulfonyl-phenyl)-[4-(4-trifluoromethyl-phenyl)-piperazin-1-yl]-methanone]
– | 0.008 µM | CS(=O)(=O)c1ccc(C2CCCC2)c(C(=O)N2CCN(c3ccc(C(F)(F)F)cc3)CC2)c1 [Example 79, (2-Cyclopentyl-5-methanesulfonyl-phenyl)-[4-(4-trifluoromethyl-phenyl)-piperazin-1-yl]-methanone]
– | 0.022 µM | CS(=O)(=O)c1ccc(C2=CCOCC2)c(C(=O)N2CCN(c3ccc(C(F)(F)F)cc3F)CC2)c1 [Example 91, [2-(3,6-Dihydro-2H-pyran-4-yl)-5-methanesulfonyl-phenyl]-[4-(2-fluoro-4-trifluoromethyl-phenyl)-piperazin-1-yl]-methanone]
– | 0.038 µM | CS(=O)(=O)c1ccc(-c2ccccc2F)c(C(=O)N2CCN(c3ncc(C(F)(F)F)cc3Cl)CC2)c1 [Example 111, [4-(3-Chloro-5-trifluoromethyl-pyridin-2-yl)-piperazin-1-yl]-(2′-fluoro-4-methanesulfonyl-biphenyl-2-yl)-methanone]
– | 0.035 µM | CS(=O)(=O)c1ccc(-c2ccccc2)c(C(=O)N2CCN(c3ncc(C(F)(F)F)cc3Cl)CC2)c1 [Example 114, [4-(3-Chloro-5-trifluoromethyl-pyridin-2-yl)-piperazin-1-yl]-(4-methanesulfonyl-biphenyl-2-yl)-methanone]
– | 0.039 µM | CS(=O)(=O)c1ccc(-c2ccccc2F)c(C(=O)N2CCN(c3ccc(C#N)cc3F)CC2)c1 [Example 126, 3-Fluoro-4-[4-(2′-fluoro-4-methane-sulfonyl-biphenyl-2-carbonyl)-piperazin-1-yl]-benzonitrile]
– | 0.036 µM | CC(=O)c1ccc(N2CCN(C(=O)c3cc(S(C)(=O)=O)ccc3-c3ccsc3)CC2)cc1 [Example 127, 1-{4-[4-(5-Methanesulfonyl-2-thiophen-3-yl-benzoyl)-piperazin-1-yl]-phenyl}-ethanone]

— patent publication US7462617B2, “Substituted acylpiperazine derivatives” (Hoffmann-La Roche Inc., priority 2003, dated 2008)
